Laboratory results taken from patent publication US20040044037A1, “Amidino-urea serotonin receptor ligands and compositions, their pharmaceutical uses, and methods for their snythesis” (priority 2003, published 2004).
Read-outs that look alike come from different tables or passages of the source.

Experiments:
human 5-HT1a receptors = target: T1, human 5-HT1a receptors (Homo sapiens, UniProt P08908); assay: Competition radioligand binding, h5-HT1a
T1 construct: expressed in transfected cells; host or cells: CHO K1 cells
T1 sequence (P08908 1-422): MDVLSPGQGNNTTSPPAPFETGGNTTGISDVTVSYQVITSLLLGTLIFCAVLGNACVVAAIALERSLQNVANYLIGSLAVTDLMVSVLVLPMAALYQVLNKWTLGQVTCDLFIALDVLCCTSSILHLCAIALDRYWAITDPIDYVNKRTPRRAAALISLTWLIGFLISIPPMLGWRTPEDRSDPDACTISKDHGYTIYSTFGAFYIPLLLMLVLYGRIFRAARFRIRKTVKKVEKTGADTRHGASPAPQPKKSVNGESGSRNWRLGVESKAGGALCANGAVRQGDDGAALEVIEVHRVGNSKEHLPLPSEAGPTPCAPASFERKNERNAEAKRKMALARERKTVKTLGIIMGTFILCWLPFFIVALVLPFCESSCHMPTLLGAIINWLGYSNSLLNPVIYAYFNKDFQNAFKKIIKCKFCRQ
How it was run: (§1)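 Human 5-HT1a and 5-HT2a receptors were expressed in CHO K1 cell membranes. Competition binding was stopped by filtration onto PEI-soaked GF/C filters and counted by liquid scintillation. IC50 values and Hill slopes came from nonlinear regression, and Ki was calculated by Cheng–Prusoff.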

human 5HT2a receptors = target: T2, human 5HT2a receptors (Homo sapiens, UniProt P28223); assay: Competition radioligand binding, 5-HT2A
T2 construct: expressed in transfected cells; host or cells: CHO K1 cells
T2 sequence (P28223 whole entry): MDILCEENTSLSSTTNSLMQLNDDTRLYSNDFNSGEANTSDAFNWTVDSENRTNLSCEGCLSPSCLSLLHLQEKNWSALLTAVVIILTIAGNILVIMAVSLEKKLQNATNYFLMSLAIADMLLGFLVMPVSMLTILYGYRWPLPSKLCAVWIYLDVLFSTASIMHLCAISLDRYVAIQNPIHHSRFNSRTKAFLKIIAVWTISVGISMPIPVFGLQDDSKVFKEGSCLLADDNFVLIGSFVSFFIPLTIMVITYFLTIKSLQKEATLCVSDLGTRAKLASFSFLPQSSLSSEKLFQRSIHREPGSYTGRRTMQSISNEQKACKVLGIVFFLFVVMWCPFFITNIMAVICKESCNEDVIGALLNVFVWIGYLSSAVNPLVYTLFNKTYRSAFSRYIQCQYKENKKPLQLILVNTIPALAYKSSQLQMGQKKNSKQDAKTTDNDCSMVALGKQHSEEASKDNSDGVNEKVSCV
How it was run: as §1

[1] = target: T3, human 5-HT6 (h5-HT6) receptors (Homo sapiens, UniProt P50406); assay: Competition radioligand binding, h5-HT6
T3 construct: purchased Receptor Biology, Inc. (Beltsville, Md.); host or cells: HEK-293 cells
T3 sequence (P50406 whole entry): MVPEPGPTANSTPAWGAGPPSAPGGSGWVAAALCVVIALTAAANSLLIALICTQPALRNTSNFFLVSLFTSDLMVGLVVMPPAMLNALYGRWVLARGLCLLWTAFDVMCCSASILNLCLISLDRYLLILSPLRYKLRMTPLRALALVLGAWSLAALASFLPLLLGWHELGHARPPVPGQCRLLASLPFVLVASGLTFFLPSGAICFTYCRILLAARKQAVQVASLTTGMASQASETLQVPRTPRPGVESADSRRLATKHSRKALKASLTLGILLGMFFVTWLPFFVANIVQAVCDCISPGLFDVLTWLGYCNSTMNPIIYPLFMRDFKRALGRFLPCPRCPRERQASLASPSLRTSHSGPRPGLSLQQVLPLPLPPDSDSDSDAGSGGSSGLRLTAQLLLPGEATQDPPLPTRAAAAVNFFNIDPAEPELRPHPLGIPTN

[2] = target: T4, human 5-HT7B (h5-HT7b) receptors (Homo sapiens, UniProt P34969); assay: Competition radioligand binding, h5-HT7b
T4 construct: expressed in transfected cells
T4 sequence (P34969 1-432 limits assumed): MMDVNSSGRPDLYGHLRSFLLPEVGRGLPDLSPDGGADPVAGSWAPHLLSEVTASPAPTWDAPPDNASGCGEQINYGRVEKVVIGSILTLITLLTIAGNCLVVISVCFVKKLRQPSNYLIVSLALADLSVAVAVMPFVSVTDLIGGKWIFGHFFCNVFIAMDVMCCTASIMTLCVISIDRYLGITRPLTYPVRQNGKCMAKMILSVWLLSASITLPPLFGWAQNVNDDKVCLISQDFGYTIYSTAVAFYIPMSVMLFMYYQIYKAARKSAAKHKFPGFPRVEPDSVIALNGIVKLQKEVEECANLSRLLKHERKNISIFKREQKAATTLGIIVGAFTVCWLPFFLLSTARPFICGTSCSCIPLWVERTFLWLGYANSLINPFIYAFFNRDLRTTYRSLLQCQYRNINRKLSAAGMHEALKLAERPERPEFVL
How it was run: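 Membranes from HEK 293 cells stably expressing human 5-HT7b incubated with ~0.2 nM [3H]5-CT and varying compound 2 h at 37 °C in HEPES buffer pH 7.4 with pargyline. Nonspecific binding with 1 μM 5-HT; filtration, scintillation counting; IC50 by nonlinear regression converted to Ki via Cheng–Prusoff.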

[3] = target: T5, human D2S dopamine (hD2S-DA) receptors (Homo sapiens, UniProt P14416); assay: Competition radioligand binding, hD2S dopamine
T5 construct: purchased Receptor Biology, Inc. (Beltsville, Md.); host or cells: A9 L cells
T5 sequence (P14416 1-414 isoform P14416-2): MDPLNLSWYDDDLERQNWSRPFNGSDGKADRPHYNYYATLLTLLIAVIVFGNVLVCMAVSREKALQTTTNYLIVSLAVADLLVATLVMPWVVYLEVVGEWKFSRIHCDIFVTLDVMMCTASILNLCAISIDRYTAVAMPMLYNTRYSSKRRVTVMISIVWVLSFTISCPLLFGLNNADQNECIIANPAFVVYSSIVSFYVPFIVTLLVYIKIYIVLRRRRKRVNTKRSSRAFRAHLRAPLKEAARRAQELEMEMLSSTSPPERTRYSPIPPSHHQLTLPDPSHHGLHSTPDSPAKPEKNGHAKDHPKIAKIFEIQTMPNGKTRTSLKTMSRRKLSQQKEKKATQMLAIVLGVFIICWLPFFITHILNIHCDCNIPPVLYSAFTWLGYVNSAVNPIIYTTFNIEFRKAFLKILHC

[4] = [3H]5-CT, membranes of CHO K1 cells, read-out: Ki 5-HT1A
[5] = [3H]Ketanserin, membranes of CHO K1 cells, read-out: Ki 5-HT2A
[6] = [3H]LSD, membranes of HEK-293 cells, read-out: Ki 5-HT6
[7] = [3H]5-CT, membranes of HEK 293 cells, read-out: Ki 5-HT7
[8] = [3H]Spiperone, membranes of A9 L cells, read-out: Ki D2

SMILES	Ki (human 5-HT1a receptors; [4])	Ki (human 5HT2a receptors; [5])	Ki [1, 6]	Ki [2, 7]	Ki [3, 8]	Ki (human 5-HT1a receptors)	Ki (human 5HT2a receptors)	Ki [1]	Ki [2]	Ki [3]
N=C(NCc1cccc2ccccc12)NC(=O)NCC1CCN(Cc2cccc(Cl)c2)CC1 [Example 73, 1-(3-Chlorobenzyl)-4-({[({imino[(1-naphthylmethyl)amino]methyl}amino)carbonyl]amino}methyl)piperidine]	390 nM	8.7 nM	750 nM	21 nM	830 nM	–	–	–	–	–
N=C(NCc1cccc2ccccc12)NC(=O)NCC1CCN(Cc2cc(F)cc(F)c2)CC1 [Example 74, 1-(3,5-Difluorobenzyl)-4-({[({imino[(1-naphthylmethyl)amino]methyl}amino)carbonyl]amino}methyl)piperidine]	300 nM	4.1 nM	1910 nM	28 nM	1340 nM	–	–	–	–	–
N=C(NCc1cccc2ccccc12)NC(=O)NCC1CCN(Cc2ccccc2)CC1 [Example 75, 1-Benzyl-4-({[({imino[(1-naphthylmethyl)amino]methyl}amino)carbonyl]amino}methyl)piperidine]	340 nM	4.9 nM	4010 nM	29 nM	2300 nM	–	–	–	–	–
Cc1ccc(CN2CCC(CNC(=O)NC(=N)NCc3cccc4ccccc34)CC2)cc1 [Example 76, 4-({[({Imino[(1-naphthylmethyl)amino]methyl}amino)carbonyl]amino}methyl)-1-(4-methylbenzyl)piperidine]	550 nM	6.8 nM	3380 nM	46 nM	1900 nM	–	–	–	–	–
N=C(NCc1cccc2ccccc12)NC(=O)NCC1CCN(Cc2ccc(F)cc2)CC1 [Example 77, 1-(4-Fluorobenzyl)-4-({[({imino[(1-naphthylmethyl)amino]methyl}amino)carbonyl]amino}methyl)piperidine]	1090 nM	9.5 nM	3350 nM	19 nM	1270 nM	–	–	–	–	–
CCOc1ccccc1CNC(=N)NC(=O)N1CCC(Nc2ccccc2)CC1 [Example 78, N-[(4-Anilino-1-piperidinyl)carbonyl]-N′-(2-ethoxybenzyl)guanidine]	–	–	–	–	–	> 4000 nM	170 nM	6870 nM	34 nM	> 2500 nM
N=C(NCc1ccccc1-c1ccccc1)NC(=O)N1CCC(Nc2ccccc2)CC1 [Example 79, N-[(4-Anilino-1-piperidinyl)carbonyl]-N′-([1,1′-biphenyl]-2-ylmethyl)guanidine]	–	–	–	–	–	> 4000 nM	910 nM	2400 nM	99 nM	> 2500 nM
N=C(NCc1c(Cl)cccc1Oc1ccccc1)NC(=O)N1CCC(Nc2ccccc2)CC1 [Example 80, N-[(4-Anilino-1-piperidinyl)carbonyl]-N′-(2-chloro-6-phenoxybenzyl)guanidine]	–	–	–	–	–	3650 nM	930 nM	2300 nM	41 nM	> 2500 nM
COc1cccc(OC)c1CNC(=N)NC(=O)N1CCC(Nc2ccccc2)CC1 [Example 81, N-[(4-Anilino-1-piperidinyl)carbonyl]-N′-(2,6-dimethoxybenzyl)guanidine]	–	–	–	–	–	2940 nM	180 nM	4700 nM	66 nM	1920 nM
CNC(=O)NC(=N)NCc1c(OC)cccc1OC [Example 85, 2-{[(Imino{[(methylamino)carbonyl]amino}methyl)amino]methyl}-1,3-dimethoxybenzene]	310 nM	280 nM	6340 nM	12 nM	> 2500 nM	–	–	–	–	–
CNC(=O)NC(=N)NCc1ccccc1Oc1ccccc1Cl [Example 86, 1-(2-Chlorophenoxy)-2-{[(imino{[(methylamino)carbonyl]amino}methyl)amino]methyl}benzene]	920 nM	290 nM	580 nM	6.3 nM	> 2500 nM	–	–	–	–	–
CNC(=O)NC(=N)NCc1cccc(-c2ccccc2)c1 [Example 87, 3-{[(Imino{[(methylamino)carbonyl]amino}methyl)amino]methyl}-1,1′-biphenyl]	> 400 nM	1020 nM	3360 nM	80 nM	> 2500 nM	–	–	–	–	–
